From ChEMBL document CHEMBL5465560, “Selectivity Literature for EUbOPEN Chemogenomic Library” (2024)

What was measured:
[1] = molecular target: T1, Testis-specific serine/threonine-protein kinase 3 (Homo sapiens) (UniProt Q96PN8); experiment: Selectivity interaction (KinomeScan (DiscoverX)) EUB0001049a TSSK3; conditions: at 1 µM
T1 sequence (whole entry): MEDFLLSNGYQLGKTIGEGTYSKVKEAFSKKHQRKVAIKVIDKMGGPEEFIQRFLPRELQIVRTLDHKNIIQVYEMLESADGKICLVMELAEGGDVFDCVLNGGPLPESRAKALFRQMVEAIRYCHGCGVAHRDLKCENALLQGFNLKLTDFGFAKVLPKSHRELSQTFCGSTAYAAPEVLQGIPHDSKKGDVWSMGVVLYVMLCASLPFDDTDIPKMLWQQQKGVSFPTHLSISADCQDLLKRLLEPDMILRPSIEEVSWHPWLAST

[2] = molecular target: T2, Myosin-IIIb (Homo sapiens) (UniProt Q8WXR4); experiment: Selectivity interaction (KinomeScan (DiscoverX)) EUB0001049a MYO3B; conditions: at 1 µM
T2 sequence (whole entry): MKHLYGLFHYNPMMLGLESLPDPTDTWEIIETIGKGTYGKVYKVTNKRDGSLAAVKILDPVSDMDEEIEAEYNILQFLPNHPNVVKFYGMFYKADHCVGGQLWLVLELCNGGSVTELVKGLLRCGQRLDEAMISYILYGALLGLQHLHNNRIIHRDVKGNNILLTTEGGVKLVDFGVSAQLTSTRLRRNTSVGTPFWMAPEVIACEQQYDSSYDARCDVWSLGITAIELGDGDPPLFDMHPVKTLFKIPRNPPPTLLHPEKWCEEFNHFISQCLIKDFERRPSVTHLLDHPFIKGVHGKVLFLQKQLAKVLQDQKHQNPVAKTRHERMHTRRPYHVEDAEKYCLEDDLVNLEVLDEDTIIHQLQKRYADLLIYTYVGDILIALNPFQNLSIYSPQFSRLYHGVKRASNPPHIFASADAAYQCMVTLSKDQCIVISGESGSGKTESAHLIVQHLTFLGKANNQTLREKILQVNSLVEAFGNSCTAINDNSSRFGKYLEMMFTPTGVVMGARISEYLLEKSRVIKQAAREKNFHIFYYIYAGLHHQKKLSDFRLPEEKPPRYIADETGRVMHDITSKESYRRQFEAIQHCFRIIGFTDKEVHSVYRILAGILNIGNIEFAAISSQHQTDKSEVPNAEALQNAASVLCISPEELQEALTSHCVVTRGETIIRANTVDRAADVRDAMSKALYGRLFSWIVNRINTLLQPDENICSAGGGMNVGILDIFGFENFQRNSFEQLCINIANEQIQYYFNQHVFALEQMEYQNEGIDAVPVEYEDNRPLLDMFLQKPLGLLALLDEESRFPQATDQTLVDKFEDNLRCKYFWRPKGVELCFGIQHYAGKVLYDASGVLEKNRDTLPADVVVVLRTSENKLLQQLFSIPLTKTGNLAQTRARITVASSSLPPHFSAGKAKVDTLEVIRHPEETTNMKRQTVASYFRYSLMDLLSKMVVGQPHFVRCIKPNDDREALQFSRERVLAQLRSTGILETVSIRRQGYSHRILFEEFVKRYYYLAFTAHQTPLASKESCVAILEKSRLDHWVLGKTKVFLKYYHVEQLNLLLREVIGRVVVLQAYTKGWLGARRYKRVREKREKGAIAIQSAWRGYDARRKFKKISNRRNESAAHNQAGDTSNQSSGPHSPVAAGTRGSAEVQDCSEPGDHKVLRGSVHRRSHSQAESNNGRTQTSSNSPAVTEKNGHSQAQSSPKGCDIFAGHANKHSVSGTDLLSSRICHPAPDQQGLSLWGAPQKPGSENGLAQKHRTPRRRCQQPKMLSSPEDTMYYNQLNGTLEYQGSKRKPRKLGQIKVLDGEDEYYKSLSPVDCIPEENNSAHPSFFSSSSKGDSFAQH

[3] = molecular target: Ribosomal protein S6 kinase alpha-5 (Homo sapiens) (UniProt O75582); experiment: Selectivity interaction (Millipore kinase profiler) EUB0000124b RPS6KA5; conditions: at 10 µM
Ribosomal protein S6 kinase alpha-5 (Homo sapiens), sequence (O75582 whole entry, looked up): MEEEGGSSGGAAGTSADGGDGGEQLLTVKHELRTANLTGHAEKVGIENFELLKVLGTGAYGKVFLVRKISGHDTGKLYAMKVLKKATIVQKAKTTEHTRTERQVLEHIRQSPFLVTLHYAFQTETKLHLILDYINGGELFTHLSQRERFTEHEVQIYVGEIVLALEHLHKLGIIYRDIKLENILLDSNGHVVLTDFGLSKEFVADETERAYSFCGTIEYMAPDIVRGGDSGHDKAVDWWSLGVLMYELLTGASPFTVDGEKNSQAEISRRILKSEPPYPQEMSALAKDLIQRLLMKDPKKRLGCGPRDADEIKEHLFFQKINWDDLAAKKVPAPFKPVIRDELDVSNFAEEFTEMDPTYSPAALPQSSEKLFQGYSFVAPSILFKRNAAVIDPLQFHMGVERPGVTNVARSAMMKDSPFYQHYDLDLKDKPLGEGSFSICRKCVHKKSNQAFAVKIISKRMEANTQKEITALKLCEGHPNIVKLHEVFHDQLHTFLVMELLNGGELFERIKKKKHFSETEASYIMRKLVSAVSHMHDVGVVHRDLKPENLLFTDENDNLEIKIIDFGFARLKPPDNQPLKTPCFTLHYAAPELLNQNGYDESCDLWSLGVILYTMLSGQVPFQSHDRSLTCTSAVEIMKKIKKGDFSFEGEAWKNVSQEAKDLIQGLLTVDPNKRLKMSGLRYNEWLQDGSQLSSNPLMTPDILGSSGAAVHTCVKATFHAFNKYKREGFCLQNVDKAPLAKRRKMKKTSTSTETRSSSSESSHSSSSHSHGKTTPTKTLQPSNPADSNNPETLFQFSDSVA

Insulin receptor = Insulin receptor (Homo sapiens, UniProt P06213); experiment: Selectivity interaction (Kinase panel (literature)) EUB0001199aCl INSR; conditions: at 1 µM
[4] = Selectivity interaction (Androgen receptor agonist/antagonist FRET assay, rat recombinant ) EUB0000877a AR
[5] = molecular target: Tyrosine-protein kinase BTK (Homo sapiens, UniProt Q06187); experiment: Selectivity interaction (ActivX KiNativ screen (kinase selectivity in THP-1 cell lysates)) EUB0000639a BTK; type: subcellular; conditions: lysate, at 0.04 µM
Tyrosine-protein kinase BTK, sequence (Q06187 whole entry): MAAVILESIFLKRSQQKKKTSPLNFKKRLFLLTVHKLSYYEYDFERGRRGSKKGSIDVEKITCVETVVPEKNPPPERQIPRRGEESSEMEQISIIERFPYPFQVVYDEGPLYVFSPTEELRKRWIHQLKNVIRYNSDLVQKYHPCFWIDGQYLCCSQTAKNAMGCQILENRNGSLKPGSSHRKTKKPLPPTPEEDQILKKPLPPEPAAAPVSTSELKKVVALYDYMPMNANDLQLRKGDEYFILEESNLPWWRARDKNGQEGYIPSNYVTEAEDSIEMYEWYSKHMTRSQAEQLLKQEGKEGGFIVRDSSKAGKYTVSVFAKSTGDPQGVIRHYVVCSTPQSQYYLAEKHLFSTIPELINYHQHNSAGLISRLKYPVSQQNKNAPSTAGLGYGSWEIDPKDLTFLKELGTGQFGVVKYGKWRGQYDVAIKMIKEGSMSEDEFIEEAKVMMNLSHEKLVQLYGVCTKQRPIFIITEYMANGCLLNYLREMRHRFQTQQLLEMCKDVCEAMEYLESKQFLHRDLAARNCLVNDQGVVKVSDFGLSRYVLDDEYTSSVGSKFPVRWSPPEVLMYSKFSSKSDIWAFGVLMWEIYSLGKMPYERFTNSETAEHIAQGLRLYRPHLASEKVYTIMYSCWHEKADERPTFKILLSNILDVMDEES

[6] = molecular target: Tyrosine-protein kinase Lyn (Homo sapiens, UniProt P07948); experiment: Selectivity interaction (ActivX KiNativ screen (kinase selectivity in THP-1 cell lysates)) EUB0000639a LYN; type: subcellular; conditions: lysate, at 0.04 µM
Tyrosine-protein kinase Lyn, sequence (P07948 2-512 limits assumed): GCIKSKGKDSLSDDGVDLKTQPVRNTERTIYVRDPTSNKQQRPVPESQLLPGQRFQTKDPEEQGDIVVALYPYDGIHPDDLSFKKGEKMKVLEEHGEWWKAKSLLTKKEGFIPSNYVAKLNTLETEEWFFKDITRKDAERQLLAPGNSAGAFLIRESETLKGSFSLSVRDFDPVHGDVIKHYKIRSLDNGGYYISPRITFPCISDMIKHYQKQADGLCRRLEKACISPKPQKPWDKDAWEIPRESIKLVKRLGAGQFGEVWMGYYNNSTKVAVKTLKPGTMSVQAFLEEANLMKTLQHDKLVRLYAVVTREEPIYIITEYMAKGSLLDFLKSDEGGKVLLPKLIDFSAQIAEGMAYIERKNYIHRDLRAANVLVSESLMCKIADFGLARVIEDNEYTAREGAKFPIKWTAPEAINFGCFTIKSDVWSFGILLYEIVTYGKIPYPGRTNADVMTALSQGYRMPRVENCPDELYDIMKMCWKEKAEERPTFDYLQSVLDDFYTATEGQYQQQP

[7] = molecular target: T3, cGMP-dependent protein kinase 1 (Homo sapiens) (UniProt Q13976); experiment: Selectivity interaction (KinomeScan (DiscoverX)) EUB0000045b PRKG1
T3 sequence (whole entry): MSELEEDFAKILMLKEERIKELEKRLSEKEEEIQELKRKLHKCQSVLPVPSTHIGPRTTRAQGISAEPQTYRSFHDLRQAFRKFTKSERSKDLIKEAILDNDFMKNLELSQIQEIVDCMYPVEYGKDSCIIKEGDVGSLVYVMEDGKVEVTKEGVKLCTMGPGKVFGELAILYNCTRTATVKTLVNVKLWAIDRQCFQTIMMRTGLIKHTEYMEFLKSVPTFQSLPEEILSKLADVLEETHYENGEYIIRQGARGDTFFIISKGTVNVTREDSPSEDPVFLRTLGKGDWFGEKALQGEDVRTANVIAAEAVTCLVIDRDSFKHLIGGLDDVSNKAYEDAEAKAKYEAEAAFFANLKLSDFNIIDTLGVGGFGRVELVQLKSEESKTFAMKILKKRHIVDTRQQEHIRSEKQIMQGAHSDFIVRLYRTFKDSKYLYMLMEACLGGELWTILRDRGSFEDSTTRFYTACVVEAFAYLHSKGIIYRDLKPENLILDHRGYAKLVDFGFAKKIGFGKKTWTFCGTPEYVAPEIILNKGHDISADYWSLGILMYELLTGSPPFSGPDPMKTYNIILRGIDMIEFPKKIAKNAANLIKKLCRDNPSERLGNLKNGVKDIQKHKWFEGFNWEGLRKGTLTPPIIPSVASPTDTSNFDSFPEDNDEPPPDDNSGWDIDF

[8] = molecular target: Tyrosine-protein kinase FRK (Homo sapiens) (UniProt P42685); experiment: Selectivity interaction (Upstate Kinase Profiler service (Millipore)) EUB0000056c FRK; conditions: at 1 µM
Tyrosine-protein kinase FRK (Homo sapiens), sequence (P42685 whole entry): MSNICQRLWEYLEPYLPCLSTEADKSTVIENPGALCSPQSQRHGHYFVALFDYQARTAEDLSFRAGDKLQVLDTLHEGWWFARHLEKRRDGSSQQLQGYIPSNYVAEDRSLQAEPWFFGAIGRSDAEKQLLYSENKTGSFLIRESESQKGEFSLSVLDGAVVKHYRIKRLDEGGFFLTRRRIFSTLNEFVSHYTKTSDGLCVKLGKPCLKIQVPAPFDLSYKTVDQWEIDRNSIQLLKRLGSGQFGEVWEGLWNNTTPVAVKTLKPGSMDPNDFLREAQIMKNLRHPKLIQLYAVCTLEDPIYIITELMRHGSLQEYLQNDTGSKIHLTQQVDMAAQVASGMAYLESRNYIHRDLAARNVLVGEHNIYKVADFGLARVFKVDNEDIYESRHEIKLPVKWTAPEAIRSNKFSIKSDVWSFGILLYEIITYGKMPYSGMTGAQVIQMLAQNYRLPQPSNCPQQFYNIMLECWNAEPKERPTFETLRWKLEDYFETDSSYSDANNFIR

[9] = molecular target: Phosphatidylinositol 4-kinase beta (Homo sapiens, UniProt Q9UBF8); experiment: Selectivity interaction (KinomeScan (DiscoverX)) EUB0000607a PI4KB; conditions: at 10 µM
Phosphatidylinositol 4-kinase beta, sequence (Q9UBF8 2-816 limits assumed): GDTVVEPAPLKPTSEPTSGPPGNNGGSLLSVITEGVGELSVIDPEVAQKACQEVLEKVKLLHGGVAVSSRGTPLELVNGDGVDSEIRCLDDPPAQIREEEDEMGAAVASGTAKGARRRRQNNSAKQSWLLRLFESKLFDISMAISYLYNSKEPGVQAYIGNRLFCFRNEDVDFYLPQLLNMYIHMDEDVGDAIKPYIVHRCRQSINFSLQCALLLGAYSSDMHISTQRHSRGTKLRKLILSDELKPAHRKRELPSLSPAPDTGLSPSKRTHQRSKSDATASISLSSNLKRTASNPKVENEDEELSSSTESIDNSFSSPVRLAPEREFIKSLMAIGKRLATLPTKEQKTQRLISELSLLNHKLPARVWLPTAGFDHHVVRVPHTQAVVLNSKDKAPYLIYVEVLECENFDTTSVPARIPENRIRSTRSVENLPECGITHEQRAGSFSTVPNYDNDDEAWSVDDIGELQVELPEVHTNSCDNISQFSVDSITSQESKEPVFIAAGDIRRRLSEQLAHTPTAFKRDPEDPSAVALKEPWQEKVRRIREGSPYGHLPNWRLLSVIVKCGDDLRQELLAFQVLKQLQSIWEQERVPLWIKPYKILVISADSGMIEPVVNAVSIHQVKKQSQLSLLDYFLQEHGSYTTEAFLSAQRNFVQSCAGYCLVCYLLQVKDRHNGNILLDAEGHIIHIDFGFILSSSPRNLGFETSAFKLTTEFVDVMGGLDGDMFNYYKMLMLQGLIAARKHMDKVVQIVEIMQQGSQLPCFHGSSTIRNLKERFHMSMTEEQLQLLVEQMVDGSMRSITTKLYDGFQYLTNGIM

[10] = molecular target: Casein kinase I isoform gamma-1 (Homo sapiens) (UniProt Q9HCP0); experiment: Selectivity interaction (Kinase panel (Z-LYTE Assay)) EUB0001632a CSNK1G1; conditions: at 10 µM
Casein kinase I isoform gamma-1 (Homo sapiens), sequence (Q9HCP0 whole entry, looked up, canonical isoform): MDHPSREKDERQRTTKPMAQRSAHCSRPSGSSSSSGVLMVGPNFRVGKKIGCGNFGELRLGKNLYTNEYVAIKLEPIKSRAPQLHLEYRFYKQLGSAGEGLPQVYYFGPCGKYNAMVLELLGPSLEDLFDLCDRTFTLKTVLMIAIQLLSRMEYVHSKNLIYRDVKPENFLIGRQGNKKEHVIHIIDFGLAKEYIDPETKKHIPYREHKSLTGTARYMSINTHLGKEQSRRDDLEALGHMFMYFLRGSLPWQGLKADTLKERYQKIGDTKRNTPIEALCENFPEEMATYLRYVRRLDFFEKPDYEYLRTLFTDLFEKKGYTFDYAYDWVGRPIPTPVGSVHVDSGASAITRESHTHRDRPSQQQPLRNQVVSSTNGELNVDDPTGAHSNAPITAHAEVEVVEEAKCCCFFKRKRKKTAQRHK

COc1cc(Nc2nc(C)cc(-c3cnn4nc(OC)ccc34)n2)cc(C(F)(F)F)c1
% of control [1]: 100% | % of control [2]: 100%

CC(=O)Nc1cccc(-n2c(=O)n(C3CC3)c(=O)c3c(Nc4ccc(I)cc4F)n(C)c(=O)c(C)c32)c1
% of control [3]: 111%

CN1Cc2nccc(-c3cn(C)nc3-c3ccc(F)cc3)c2C1=O
% of inhibition (Insulin receptor): 3%

CCC(=O)N1CC[C@H](Nc2ncnc3c2CN(c2cnc(OC)c(C(F)(F)F)c2)CC3)C1 [LENIOLISIB]
IC50 [4]: > 30 µM

CC[C@@H]1[C@H](F)C(=O)N[C@@H]1COc1nccc2cc(C(N)=O)c(OC)cc12 [ZIMLOVISERTIB]
% of inhibition [5]: -17.7% | % of inhibition [6]: -15.2%

C=CC(=O)Nc1cc(-n2c(=O)ccc3cnc4ccc(-c5ccc(NS(C)(=O)=O)cc5)cc4c32)ccc1C
% of control ([7]; at 1 µM): 87% | % of control ([7]; at 10 µM): 100%

Cc1ccc(-c2ccc3c(ccc4sc5c(c43)NC[C@@H](C)NC5=O)n2)cn1
% of inhibition [8]: 32%

CNC(=O)Nc1ccc(-c2nc(N3CC4CCC(C3)O4)c3cnn(C4CCC5(CC4)OCCO5)c3n2)cc1
% of control [9]: 100%

Cn1cc(-n2cnc3c(NCc4nc5cc(Cl)c(Cl)cc5[nH]4)nc(N4CCOCC4)nc32)cn1
% of control [10]: 12.7%
